The values below come from BindingDB's records for patent US20250313563 (The Broad Institute, 2025).

“And” between values parts separate entries of the source, which are not always exact repeats. Identical values can stand only once.

For assay [1], the target named is Glycogen synthase kinase-3 beta (Homo sapiens, UniProt P49841). The experiment in a line: TR-FRET Assay. Put shortly:
(§1)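 TR-FRET readout: streptavidin-d2 (40 nM in added detection mix) plus Tb-anti-pSer641 Ab (2 nM in mix). Steps were 30 min compound preincubation, kinase reaction, then EDTA stop.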
A general note: In TR-FRET formats the signal depends on donor and acceptor labels being close together.

The target in assay [2] is Glycogen synthase kinase-3 alpha (Homo sapiens, UniProt P49840). Description: TR-FRET Assay. Put shortly:
as §1

Sequence of Glycogen synthase kinase-3 alpha (P49840 whole entry): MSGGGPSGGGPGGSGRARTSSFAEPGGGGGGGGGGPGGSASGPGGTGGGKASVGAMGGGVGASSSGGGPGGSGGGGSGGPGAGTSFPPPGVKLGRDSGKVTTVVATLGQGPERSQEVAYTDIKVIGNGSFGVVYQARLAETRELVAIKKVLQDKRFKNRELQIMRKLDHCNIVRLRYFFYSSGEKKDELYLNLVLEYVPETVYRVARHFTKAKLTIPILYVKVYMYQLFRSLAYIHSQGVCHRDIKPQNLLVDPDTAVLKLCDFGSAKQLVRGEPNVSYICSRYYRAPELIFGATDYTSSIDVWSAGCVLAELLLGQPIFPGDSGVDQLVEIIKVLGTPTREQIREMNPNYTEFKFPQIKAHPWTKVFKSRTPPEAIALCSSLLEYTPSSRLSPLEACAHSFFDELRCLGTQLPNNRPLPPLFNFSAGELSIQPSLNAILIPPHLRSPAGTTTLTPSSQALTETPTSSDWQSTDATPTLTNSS
Sequence of Glycogen synthase kinase-3 beta (P49841 whole entry): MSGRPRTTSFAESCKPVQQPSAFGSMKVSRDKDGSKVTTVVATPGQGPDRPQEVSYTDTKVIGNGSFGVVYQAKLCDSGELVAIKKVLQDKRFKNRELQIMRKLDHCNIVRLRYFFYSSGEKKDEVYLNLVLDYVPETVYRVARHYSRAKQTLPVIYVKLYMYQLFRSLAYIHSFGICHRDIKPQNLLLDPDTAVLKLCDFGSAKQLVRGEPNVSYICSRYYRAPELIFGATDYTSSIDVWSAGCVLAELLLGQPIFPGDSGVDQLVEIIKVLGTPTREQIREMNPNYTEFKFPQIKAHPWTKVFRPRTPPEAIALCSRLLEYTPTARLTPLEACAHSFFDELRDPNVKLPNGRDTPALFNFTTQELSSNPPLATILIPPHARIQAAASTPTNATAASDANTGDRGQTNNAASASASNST

On to `C[C@H]1C[C@]2(CCN1S(=O)(=O)c1ccn(C)n1)C1=C(N=NC1)NC1=C2C(=O)CC(C)(C)C1` [US20250313563, Compound 926815], for which the IC50 in assay [1] and in assay [2] was under 100 nM throughout.
Regarding `CC1(C)CC(=O)C2=C(C1)NC1N=NC(C3CC(F)(F)C3)=C1[C@@]21COc2ccccc21` (stereo partly drawn) [US20250313563, Compound 127430], the IC50 was 100 to 1000 nM in assay [1] and 1000 to 5000 nM in assay [2].
For `CC[C@]1(c2cccc(C3CCOCC3)c2)C2=CN=NC2NC2=C1C(=O)CC(C)(C)C2` (stereo partly drawn) [US20250313563, Compound 819638] the same measures were 100 to 1000 nM and 100 to 1000 nM.
With `O=C1CC2(CSC2)CC2=C1C1(CCCC1)C1=CN=NC1N2` (stereo not drawn) [US20250313563, Compound 913441], the IC50 in assay [1] and in assay [2] was 100 to 1000 nM in each case.
Regarding `CC[C@]1(c2cccc(-c3ccncn3)c2)C2=CN=NC2NC2=C1C(=O)CC(C)(C)C2` (stereo partly drawn) [US20250313563, Compound 810488], the concentration for half-maximal inhibition (IC50) in assay [1] was 100 to 1000 nM; in assay [2], under 100 nM.
Turning to `CC1(C)CC(=O)C2=C(C1)NC1=C(CN=N1)C21CCC1` [US20250313563, Compound 874509], the concentration for half-maximal inhibition (IC50) in assay [1] and in assay [2] was 100 to 1000 nM in each case.
On to `CC[C@]1(c2cccc(Oc3ncccn3)c2)C2=C(CC(C)(C)NC2=O)NC2N=NC(F)=C21` (stereo partly drawn) [US20250313563, Compound 951949], for which the concentration for half-maximal inhibition (IC50) in assay [1] is 100 to 1000 nM and > 5000 nM; in assay [2], < 100 nM and 100 to 1000 nM.
In the case of `CCn1nccc1-c1cccc([C@]2(CC)C3=CN=NC3NC3=C2C(=O)CC(C)(C)C3)c1` (stereo partly drawn) [US20250313563, Compound 946089], the IC50 is < 100 nM and 100 to 1000 nM in assay [1]; under 100 nM in assay [2].
As to `CC1(C)CC(=O)C2=C(C1)NC1=C(CN=N1)C21CCN(S(=O)(=O)C2CCCCC2)CC1` [US20250313563, Compound 913128], the IC50 in assay [1] is < 100 nM and 100 to 1000 nM; in assay [2], under 100 nM.
Turning to `CC1(C)CC(=O)C2=C(C1)NC1=C(CN=N1)C21CCCCC1=O` (stereo not drawn) [US20250313563, Compound 912105], the IC50 in assay [1] and in assay [2] was over 5000 nM each time.
Regarding `Cn1ccc(CN2CC3(C2)C2=C(N=NC2)NC2=C3C(=O)CC(C)(C)C2)n1` [US20250313563, Compound 932652], the IC50 in assay [1] and in assay [2] was over 5000 nM each time.
With `CCC1(c2cccc(-c3cnnc(C)c3)c2)C2=CN=NC2NC2=C1C(=O)NC(C)(C)C2` (stereo not drawn) [US20250313563, Compound 943496], the results for the IC50 in assay [1] and in assay [2] were 1000 to 5000 nM and under 100 nM, respectively.
For `CN1CCCC2(CC1)C1=C(N=NC1)NC1=C2C(=O)CC(C)(C)C1` (stereo not drawn) [US20250313563, Compound 893313], in that order: over 5000 nM and over 5000 nM.
With `CC[C@@]1(c2cccc(-c3cnn4ccncc34)c2)C2=CN=NC2NC2=C1C(=O)NC(C)(C)C2` (stereo partly drawn) [US20250313563, Compound 952565], the IC50 in assay [1] was 100 to 1000 nM and > 5000 nM; in assay [2] it was < 100 nM and 1000 to 5000 nM.
On to `CC1(C)CC(=O)C2=C(C1)NC1=C(CN=N1)C21CCN(S(=O)(=O)c2cccc(OC(F)F)c2)CC1` [US20250313563, Compound 947242], for which the IC50 in assay [1] is < 100 nM and 100 to 1000 nM; in assay [2], under 100 nM.
Regarding `CCC1(c2cccc(N(C)c3nccc(C)n3)c2)C2=CN=NC2NC2=C1C(=O)CC(C)(C)C2` (stereo not drawn) [US20250313563, Compound 942642], the IC50 is < 100 nM and 1000 to 5000 nM in assay [1]; under 100 nM in assay [2].
With `CCC1(c2cccc(Oc3ncccn3)c2)C2=CN=NC2NC2=C1C(=O)NC(C)(C)C2` (stereo not drawn) [US20250313563, Compound 948764], the IC50 in assay [1] was 100 to 1000 nM; in assay [2] it was under 100 nM.
Regarding `CCC1(c2cccc(C(F)(F)F)c2)C2=C(CC(C)(C)CC2=O)NC2N=NC(C)=C21` (stereo not drawn) [US20250313563, Compound 801321], the IC50 in assay [1] and in assay [2] was under 100 nM each time.
As for `CCC1(c2cccc(C3=CN=NC3)c2)C2=C(CC(C)(C)CC2=O)NC2N=NC(C)=C21` (stereo not drawn) [US20250313563, Compound 883994], the IC50 in assay [1] and in assay [2] was under 100 nM in each case.

What is called IC50 is the midpoint of a concentration-inhibition curve. Low readings indicate greater potency, high ones weaker potency.
